Experimental data taken from ChEMBL document CHEMBL3137667, “[Drug-induced liver injury; fourteenth updated edition of the bibliographic database of liver injuries and related drugs]” (Gastroenterol Clin Biol, 2004).
*1 amine or outer side, *2 acyl side, *3 side chain or, on linkers, in order; H or OH if unused. Where a SMILES comes first, the peptide text is derived from it. Bridges are numbered along the chain shown (N, C = ends). [ ]: non-standard residue; d: D form. The star is where a group is joined. ξ: configuration not given here. X2 = N=C1NCCC([C@H](N[*:1])C(=O)[*:2])N1; ΔAla(Z-3-ureido) = NC(=O)N/C=C(\N)C(=O)O; ξβ3hOrn = NCCCC(N)CC(=O)*; Dap = NC[C@H](N)C(=O)O

Columns and labels:
[1] = human, serum
[2] = human
[3] = human; remark: listed apart in the source
[4] = Highest frequency of acute liver toxicity observed during clinical trials, expressed as a percentage. [column '% AIGUE' in source]; settings: human
[5] = human; remark: listed apart in the source
[6] = human; remark: listed apart in the source
[7] = human; remark: listed apart in the source
[8] = human, serum, 4383 h
[9] = human; remark: listed apart in the source
[10] = Highest frequency of moderate liver toxicity observed during clinical trials, expressed as a percentage. [column '% BIOL' in source]; settings: human
[11] = human; remark: listed apart in the source
[12] = human, serum; remark: listed apart in the source
[13] = human; remark: listed apart in the source
[14] = human; remark: listed apart in the source
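Throughout, for Hepatotoxicity (association with vascular disease): count of indexed literature references reporting vascular liver injury in humans, e.g. peliosis hepatitis, hepatic veno-occlusive disease or Budd-Chiari syndrome.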
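Throughout, for Hepatotoxicity (benign tumour): value is a count of indexed literature references citing a benign tumour confirmed by histopathology.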
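Throughout, for Hepatotoxicity (choleostasis): human cholestatic liver injury, shown by histopathology or by peak ALT or AST elevation over alkaline phosphatase ratio below 2, value counts indexed literature reports.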
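Throughout, for Hepatotoxicity (chronic liver disease): chronic liver injury confirmed by histopathology or persistently raised serum aminotransferase activity beyond 6 months, value given as the count of indexed literature references.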
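Throughout, for Hepatotoxicity (cirrhosis): value is a count of indexed literature references reporting cirrhosis confirmed by histopathology.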
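Throughout, for Hepatotoxicity (cytolytic): human cytolytic liver injury, shown by histopathology or by a ratio above 5 of peak ALT or AST elevation to alkaline phosphatase elevation, value counts indexed references.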
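Throughout, for Hepatotoxicity (granulomatous hepatitis): value is a count of indexed literature references reporting granulomatous liver disease confirmed by histopathology.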
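Throughout, for Hepatotoxicity (malignant tumour): malignant tumour confirmed by histopathology, value gives the count of indexed literature references reporting it.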
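Throughout, for Hepatotoxicity (severe hepatitis): human clinical data: severe hepatitis, meaning potentially life-threatening liver failure or clinically observed cases, the value counts how many indexed literature references report it.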
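Throughout, for Hepatotoxicity (steatosis): steatosis confirmed by histopathology, value is the count of indexed references.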

C[C@@H]1NC(=O)[C@@H](N)CNC(=O)[C@H](C2CCNC(=N)N2)NC(=O)/C(=C/NC(N)=O)NC(=O)[C@H](CNC(=O)CC(N)CCCN)NC1=O.N=C1NCCC([C@@H]2NC(=O)/C(=C/NC(N)=O)NC(=O)[C@H](CNC(=O)CC(N)CCCN)NC(=O)[C@H](CO)NC(=O)[C@@H](N)CNC2=O)N1 (stereo partly drawn) [CAPREOMYCIN] (H-[Dap]S[Dap](ξβ3hOrn)[ΔAla(Z-3-ureido)][X2]; lactam 1-C)
Hepatotoxicity (moderate) [1]: 3 | Hepatotoxicity (severe hepatitis) [2]: 0 | Hepatotoxicity (association with vascular disease) [3]: 0 | Hepatotoxicity (acute) [4]: 0% | Hepatotoxicity (cirrhosis) [5]: 0 | Hepatotoxicity (steatosis) [6]: 0 | Hepatotoxicity (granulomatous hepatitis) [7]: 0 | Hepatotoxicity (chronic liver disease) [8]: 0 | Hepatotoxicity (choleostasis) [9]: 0 | Hepatotoxicity (moderate) [10]: 0% | Hepatotoxicity (cytolytic) [11]: 0 | Hepatotoxicity (acute) [12]: 0 | Hepatotoxicity (malignant tumour) [13]: 0 | Hepatotoxicity (benign tumour) [14]: 0

COc1cc2nc(N3CCN(C(=O)C4COc5ccccc5O4)CC3)nc(N)c2cc1OC (centres undefined) [DOXAZOSIN]
Hepatotoxicity (moderate) [1]: 2 | Hepatotoxicity (severe hepatitis) [2]: 0 | Hepatotoxicity (association with vascular disease) [3]: 0 | Hepatotoxicity (acute) [4]: 0% | Hepatotoxicity (cirrhosis) [5]: 0 | Hepatotoxicity (steatosis) [6]: 0 | Hepatotoxicity (granulomatous hepatitis) [7]: 0 | Hepatotoxicity (chronic liver disease) [8]: 0 | Hepatotoxicity (choleostasis) [9]: 0 | Hepatotoxicity (moderate) [10]: 2.9% | Hepatotoxicity (cytolytic) [11]: 0 | Hepatotoxicity (acute) [12]: 0 | Hepatotoxicity (malignant tumour) [13]: 0 | Hepatotoxicity (benign tumour) [14]: 0

NCCNC(=O)c1ccc(Cl)cn1 [LAZABEMIDE]
Hepatotoxicity (moderate) [1]: 1 | Hepatotoxicity (severe hepatitis) [2]: 0 | Hepatotoxicity (association with vascular disease) [3]: 0 | Hepatotoxicity (acute) [4]: 0% | Hepatotoxicity (cirrhosis) [5]: 0 | Hepatotoxicity (steatosis) [6]: 0 | Hepatotoxicity (granulomatous hepatitis) [7]: 0 | Hepatotoxicity (chronic liver disease) [8]: 0 | Hepatotoxicity (choleostasis) [9]: 0 | Hepatotoxicity (moderate) [10]: 0.3% | Hepatotoxicity (cytolytic) [11]: 0 | Hepatotoxicity (acute) [12]: 0 | Hepatotoxicity (malignant tumour) [13]: 0 | Hepatotoxicity (benign tumour) [14]: 0

CC(C)(C)C(=O)OCOC(=O)[C@@H]1N2C(=O)[C@@H](NC(=O)[C@H](N)c3ccccc3)[C@H]2SC1(C)C [PIVAMPICILLIN]
Hepatotoxicity (moderate) [1]: 0 | Hepatotoxicity (severe hepatitis) [2]: 0 | Hepatotoxicity (association with vascular disease) [3]: 0 | Hepatotoxicity (acute) [4]: 0% | Hepatotoxicity (cirrhosis) [5]: 0 | Hepatotoxicity (steatosis) [6]: 0 | Hepatotoxicity (granulomatous hepatitis) [7]: 0 | Hepatotoxicity (chronic liver disease) [8]: 0 | Hepatotoxicity (choleostasis) [9]: 0 | Hepatotoxicity (moderate) [10]: 0% | Hepatotoxicity (cytolytic) [11]: 1 | Hepatotoxicity (acute) [12]: 1 | Hepatotoxicity (malignant tumour) [13]: 0 | Hepatotoxicity (benign tumour) [14]: 0

O=C(O)C1=C(C[n+]2ccc(CCS(=O)(=O)[O-])cc2)CS[C@@H]2[C@H](NC(=O)[C@H](NC(=O)c3[nH]cnc3C(=O)O)c3ccccc3)C(=O)N12 [CEFPIMIZOLE]
Hepatotoxicity (moderate) [1]: 30 | Hepatotoxicity (severe hepatitis) [2]: 0 | Hepatotoxicity (association with vascular disease) [3]: 0 | Hepatotoxicity (acute) [4]: 0% | Hepatotoxicity (cirrhosis) [5]: 0 | Hepatotoxicity (steatosis) [6]: 0 | Hepatotoxicity (granulomatous hepatitis) [7]: 0 | Hepatotoxicity (chronic liver disease) [8]: 0 | Hepatotoxicity (choleostasis) [9]: 0 | Hepatotoxicity (moderate) [10]: 18.8% | Hepatotoxicity (cytolytic) [11]: 0 | Hepatotoxicity (acute) [12]: 0 | Hepatotoxicity (malignant tumour) [13]: 0 | Hepatotoxicity (benign tumour) [14]: 0

CCCN1CCO[C@@H]2c3cc(O)ccc3CC[C@H]21 [NAXAGOLIDE]
Hepatotoxicity (moderate) [1]: 1 | Hepatotoxicity (severe hepatitis) [2]: 0 | Hepatotoxicity (association with vascular disease) [3]: 0 | Hepatotoxicity (acute) [4]: 0% | Hepatotoxicity (cirrhosis) [5]: 0 | Hepatotoxicity (steatosis) [6]: 0 | Hepatotoxicity (granulomatous hepatitis) [7]: 0 | Hepatotoxicity (chronic liver disease) [8]: 0 | Hepatotoxicity (choleostasis) [9]: 0 | Hepatotoxicity (moderate) [10]: 11.1% | Hepatotoxicity (cytolytic) [11]: 0 | Hepatotoxicity (acute) [12]: 0 | Hepatotoxicity (malignant tumour) [13]: 0 | Hepatotoxicity (benign tumour) [14]: 0

CCCC(=O)O[C@H]1[C@H](C)O[C@@H](O[C@H]2[C@H](N(C)C)[C@@H](O)[C@H](O[C@H]3[C@@H](CC=O)C[C@@H](C)[C@@H](O)/C=C/C=C/C[C@@H](C)OC(=O)C[C@@H](O)[C@@H]3OC)O[C@@H]2C)C[C@@]1(C)OC(=O)CC [ROKITAMYCIN]
Hepatotoxicity (moderate) [1]: 4 | Hepatotoxicity (severe hepatitis) [2]: 0 | Hepatotoxicity (association with vascular disease) [3]: 0 | Hepatotoxicity (acute) [4]: 0% | Hepatotoxicity (cirrhosis) [5]: 0 | Hepatotoxicity (steatosis) [6]: 0 | Hepatotoxicity (granulomatous hepatitis) [7]: 0 | Hepatotoxicity (chronic liver disease) [8]: 0 | Hepatotoxicity (choleostasis) [9]: 0 | Hepatotoxicity (moderate) [10]: 5% | Hepatotoxicity (cytolytic) [11]: 0 | Hepatotoxicity (acute) [12]: 0 | Hepatotoxicity (malignant tumour) [13]: 0 | Hepatotoxicity (benign tumour) [14]: 0

OCCN1CCN(CC/C=C2/c3ccccc3Sc3ccc(Cl)cc32)CC1 [ZUCLOPENTHIXOL]
Hepatotoxicity (moderate) [1]: 1 | Hepatotoxicity (severe hepatitis) [2]: 0 | Hepatotoxicity (association with vascular disease) [3]: 0 | Hepatotoxicity (acute) [4]: 0% | Hepatotoxicity (cirrhosis) [5]: 0 | Hepatotoxicity (steatosis) [6]: 0 | Hepatotoxicity (granulomatous hepatitis) [7]: 0 | Hepatotoxicity (chronic liver disease) [8]: 0 | Hepatotoxicity (choleostasis) [9]: 0 | Hepatotoxicity (moderate) [10]: 19% | Hepatotoxicity (cytolytic) [11]: 0 | Hepatotoxicity (acute) [12]: 0 | Hepatotoxicity (malignant tumour) [13]: 0 | Hepatotoxicity (benign tumour) [14]: 0

OCc1cc(C(O)CNCCCCCCOCCCCc2ccccc2)ccc1O (centres undefined) [SALMETEROL]
Hepatotoxicity (moderate) [1]: 1 | Hepatotoxicity (severe hepatitis) [2]: 0 | Hepatotoxicity (association with vascular disease) [3]: 0 | Hepatotoxicity (acute) [4]: 0% | Hepatotoxicity (cirrhosis) [5]: 0 | Hepatotoxicity (steatosis) [6]: 0 | Hepatotoxicity (granulomatous hepatitis) [7]: 0 | Hepatotoxicity (chronic liver disease) [8]: 0 | Hepatotoxicity (choleostasis) [9]: 0 | Hepatotoxicity (moderate) [10]: 1.8% | Hepatotoxicity (cytolytic) [11]: 0 | Hepatotoxicity (acute) [12]: 0 | Hepatotoxicity (malignant tumour) [13]: 0 | Hepatotoxicity (benign tumour) [14]: 0

COC(=O)C[C@](O)(CCCC(C)(C)O)C(=O)O[C@@H]1C(OC)=C[C@]23CCCN2CCc2cc4c(cc2[C@H]13)OCO4 [OMACETAXINE MEPESUCCINATE]
Hepatotoxicity (moderate) [1]: 3 | Hepatotoxicity (severe hepatitis) [2]: 0 | Hepatotoxicity (association with vascular disease) [3]: 0 | Hepatotoxicity (acute) [4]: 0% | Hepatotoxicity (cirrhosis) [5]: 0 | Hepatotoxicity (steatosis) [6]: 0 | Hepatotoxicity (granulomatous hepatitis) [7]: 0 | Hepatotoxicity (chronic liver disease) [8]: 0 | Hepatotoxicity (choleostasis) [9]: 0 | Hepatotoxicity (moderate) [10]: 15% | Hepatotoxicity (cytolytic) [11]: 0 | Hepatotoxicity (acute) [12]: 0 | Hepatotoxicity (malignant tumour) [13]: 0 | Hepatotoxicity (benign tumour) [14]: 0

NS(=O)(=O)c1cc(C2(O)NC(=O)c3ccccc32)ccc1Cl (centres undefined) [CHLORTHALIDONE]
Hepatotoxicity (moderate) [1]: 0 | Hepatotoxicity (severe hepatitis) [2]: 0 | Hepatotoxicity (association with vascular disease) [3]: 0 | Hepatotoxicity (acute) [4]: 0% | Hepatotoxicity (cirrhosis) [5]: 0 | Hepatotoxicity (steatosis) [6]: 0 | Hepatotoxicity (granulomatous hepatitis) [7]: 0 | Hepatotoxicity (chronic liver disease) [8]: 0 | Hepatotoxicity (choleostasis) [9]: 0 | Hepatotoxicity (moderate) [10]: 0% | Hepatotoxicity (cytolytic) [11]: 0 | Hepatotoxicity (acute) [12]: 2 | Hepatotoxicity (malignant tumour) [13]: 0 | Hepatotoxicity (benign tumour) [14]: 0
